Data: US6579679B1, “Method for examining central nervous system diseases and method for screening remedies” (Tanabe Seiyaku Co., Ltd., priority 1998, dated 2003)

Legend:
[1] = tested on: PS-2 splicing variant lacking exon 5; assay: Effect of drug on induction of expression of PS-2 splicing variants in human nerve cells under hypoxic conditions (RT-PCR, gel electrophoresis); format: cell-based; settings: human neuroblastoma SK-N-SH cells, low oxygen 16 hours; cycloheximide 0.2 or 1 μg/ml, N-acetyl-L-cysteine 2 or 10 μM, diphenylene iodonium chloride 5 or 20 μM; FIG. 5
[2] = tested on: PS-2 splicing variants (5′-terminal fragment); assay: Detection of PS-2 splicing variants in human nerve cells after β-amyloid stimulation or hydrogen peroxide addition (RT-PCR, gel electrophoresis); format: cell-based; settings: SK-N-SH cells; Aβ25-35 0.5 or 5 μM for 16 hours; H2O2 44 or 440 μM for 2 hours; FIG. 2
Experimental: After culturing human neuroblastoma SK-N-SH cells (ATCC HTB-11) in α-MEM medium (α-Minimum Essential Medium; available from GIBCO CO.) containing 10% fetal bovine serum in a 10 cm diameter culture plates at 37° C. for about 48 hours in a CO2 incubator to a confluent state, the medium was replaced with the same medium not containing fetal bovine serum followed by additional culturing for about 2 hours.
The above cultured cells were additionally cultured under the conditions (i) to (iv) indicated below (culturing was continued for an additional 16 hours under the same conditions as above for the control).
(iii) β-amyloid stimulation: Aβ25-35 (available from Sigma Co.) was added to the medium to a final concentration of 0.5 μM or 5 μM followed by incubating for 16 hours. […]
Using, the RNA (total RNA, 1 μg) obtained in section (1) above as template, this RNA was allowed to react for 1 hour at 42° C. in 0.05 ml of a buffer (0.05 M Tris-HCl, pH 8.3, 0.075 MN KCl, 0.003 M MgCl2, DTT and 0.0002 M deoxynucleotides) containing oligo dT primer (50 pmole), random oligonucleotide (5 pmole) and reverse transcriptase (available from Promega Co., Moloney leukaemia virus reverse transcriptase) (200 units) to synthesize single-strand cDNA. Using the resulting single-strand cDNA, splicing variants were detected by polymerase chain reaction (PCR) in the manner described below. […]

Row | Compound | expression of a splicing variant lacking exon 5 induced by hypoxic treatment [1] | bands not observed in the control, PCR of the 5′-terminal fragment of PS-2 (induced splicing variants) [2]
1 | C[C@@H]1C[C@@H]([C@H](O)CC2CC(=O)NC(=O)C2)C(=O)[C@@H](C)C1 [cycloheximide] | inhibited | –
2 | c1ccc2c(c1)[I+]c1ccccc1-2 [diphenylene iodonium chloride] | inhibited | –
3 | β-amyloid: partial peptide consisting of the 25th to 35th amino acid residues of β-amyloid protein (GSNKGAIIGLM; Amyloid-beta protein 42; UniProt P05067 696-706, looked up, fragment) | – | two bands each not observed in the control
4 | OO [hydrogen peroxide] | – | three bands not observed in the control
5 | CC(=O)N[C@@H](CS)C(=O)O [N-acetyl-L-cysteine] | inhibited | –
